The values that follow come from article PMC8915624 (Antiviral Research, 2022).

For data set [1], the system named is SARS-CoV-2. It is filed as cell-based.
For data set [2], the system named is HCoV-OC43. Format: cell-based. The conditions noted are these: Vero-E6/OC43; MOI 0.1, 72 hpi, real-time RT-PCR. A general note: Real-time PCR tracks product formation cycle by cycle.
Another data set relates to SARS-CoV-2 NP protein. Format: cell-based.
Data set [3] deals with HCoV-OC43. It is filed as cell-based. Conditions: for IC50: MRC-5/OC43, MOI 0.1, 72 hpi, viral genome copies by real-time RT-PCR; for relative viral genome copy number in cell lysates and supernatants: 20 μM.
The next data set has as its system MRC-5 cells. In words: Cell viability assay. Format: cell-based, Human. The conditions noted are these: for CC50: MRC-5 cells, MTT, 72 h.
Another data set relates to Vero-E6 cells. In words: Cell viability assay. It is filed as cell-based, African green monkey. The conditions noted are these: MTT, 72 h.
Data set [4] concerns SARS-CoV-2. Format: cell-based. The conditions noted are these: Vero-E6/SARS-CoV-2; MOI 0.1, 72 hpi, real-time RT-PCR.
Data set [5] concerns HCoV-OC43. Format: cell-based. The conditions noted are these: MRC-5, 72 hpi; 20 μM.
A further data set has as its system HCoV-OC43 NP. It is filed as cell-based. The conditions noted are these: MRC-5, MOI 1; 20 μM.

Like-named read-outs stand apart in the source and are kept apart here.

Consider `NC(=O)[C@H](CCCN=C(N)CCl)NC(=O)c1ccccc1` [Cl-amidine], for which the “reduction in SARS-CoV-2 yield (plaque assay)” value in the data set with SARS-CoV-2 [1] is on record as 1 log. The IC50 (as a rule, the point on the concentration scale where inhibition reaches its midpoint) with HCoV-OC43 [2] is 44.1 µM; in the data set on HCoV-OC43 [3], 34.8 µM; in the data set with SARS-CoV-2 [4] it was 95.2 µM. In addition, the “reduction of SARS-CoV-2 NP protein expression” value in the data set with SARS-CoV-2 NP protein was ~50%. The “intra- and extra-cellular viral genome copy numbers” value with HCoV-OC43 [3] (MRC-5, MOI 0.1, Cl-A 100 μM, BB-Cl 2.5 μM) is recorded as “drastically reduced”. Further, the 50% cytotoxic concentration (CC50) (commonly the concentration that lowers cell viability or growth by half) in the data set on MRC-5 cells is 949 µM; with Vero-E6 cells, > 1000 µM.
In the case of AFM30a, in the data set on HCoV-OC43 [5], the “reduction of the viral titer (plaque assay)” value is “barely detectable”. In addition, the “OC43 NP protein expression levels (Western blot)” value in the data set on HCoV-OC43 NP is reported as “slight decrease”. In addition, the “inhibition of HCoV-OC43 replication rate (maximum within the range of concentrations tested)” value with HCoV-OC43 [3] (MRC-5, MOI 0.1, 72 hpi) is on record as ≤ 40%. The “relative viral genome copy number in cell lysates and supernatants” value in the data set on HCoV-OC43 [3] (MRC-5, MOI 0.1) is given as “much less pronounced reduction”. Besides, in the data set on HCoV-OC43 [3], the IC50 is > 20 µM. Also, the midpoint of cytotoxicity in the data set with MRC-5 cells, the CC50, lay at 321 µM.
For the compound GSK199, the “reduction of the viral titer (plaque assay)” value with HCoV-OC43 [5] is listed as ~2 log. Besides, the “OC43 NP protein expression levels (Western blot)” value in the data set with HCoV-OC43 NP is “dramatic downregulation”. Moreover, the “viral replication (viral genome production)” value in the data set on HCoV-OC43 [3] (MRC-5, 20 μM) is “complete blockade of viral replication”. For the same compound, the “relative viral genome copy number in cell lysates and supernatants” value in the data set on HCoV-OC43 [3] (MRC-5, MOI 0.1) was “drastically reduced”. This compound also had an IC50 in the data set with HCoV-OC43 [3] of 0.6 µM. Besides, the cell viability entry in the data set with MRC-5 cells (MRC-5, 20 μM) is “viable”. Further, in the data set with MRC-5 cells, the CC50 was 133 µM.
